Assay results from patent US20210322509A1, “Methods for Reducing Perinatal Morbidity and / or Mortality” (CHU SAINTE-JUSTINE, priority 2016, published 2021).
Non-standard residues stand in square brackets, D forms with d. Residues, ends and D or L forms follow the SMILES beside them. ξ: configuration not given here. dThr(3ξ) = CC(O)[C@@H](N)C(=O)O

Tests used:
[1] = system: IL-1β, IL-6, IL-8 and PGF2α in neonatal intestines; experiment: ELISA of pro-inflammatory mediators in intestines of neonates; assay type: in vivo, mice; conditions: neonates from IL-1β-treated dams; for levels of gut IL-6: relative to control
Description: FIGS. 5A to 5D show the levels of the pro-inflammatory mediators IL-1p (FIG. 5A), IL-6 (FIG. 5B), IL-8 (FIG. 5C) and PGF2a (FIG. 5D) in the intestines of neonates from sham and IL-1β-treated dams administered with vehicle, Compound 1 or Kineret, as assessed by ELISA. One-way ANOVA compared to IL-1β+Veh. *p<0.05. n=4 pups in each groups.
(§1) Murine ELISA assays. The ELISA assay was performed using mouse Quantikine™ ELISA kits against IL-1β or IL-6 (R&D Systems®; #MLBOOC, M6000B), IL-8 and PGF2α (MyBioSource®; #MBS261967, #MBS264160) according to the manufacturer's instructions. Briefly, tissues (lungs, intestines and brains) collected at birth were homogenized in RIPA buffer containing proteases and 50 μL of either lung, intestine, or brain samples, recombinant mouse IL-1β, IL-6, IL-8 or PGF2α positive control or decreasing concentrations of a recombinant mouse IL-1β, IL-6, IL-8 or PGF2α standard were loaded into a 96-well plate pre-coated with a monoclonal anti-mouse IL-1β antibody and incubated for 2 hours at ambient temperature. Wells were washed 5 times and incubated with an enzyme-linked mouse polyclonal antibody specific to murine IL-1β for 2 hours. After another washing step, a substrate solution was added. The enzymatic reaction was stopped after 30 minutes and the plate was read at 450 nm, with wavelength correction set to 570 nm.

[2] = system: lungs of pups from IL-1β-treated dams; experiment: Lung histology (alveoli count, architecture) at PT15; assay type: in vivo, mice; conditions: for damages to lung architecture caused by IL-1β: histology
Description: One-way ANOVA compared to IL-1β+Veh. *p<0.05, ***p<0.001. Sham (n=6 pups), IL-1β (n=3 pups), IL-1β+Compound 1 (n=6 pups), IL-1β+Kin (n=8 pups).
Histology. Intestines (from ileum to rectum) and lungs of post-term (PT) 15 mice were collected and fixed in 10% formalin during >48 h and were coated in paraffin. Samples were cut with a microtome (thickness=[…]) and mounted on lamella. Intestines were colored using hematoxylin-phloxine-saffron (HPS), whereas lungs were colored using H&E. Images were taken with a slidescanner (Axioscan®). Quantification of images was performed under blind evaluation of groups using Zen2 software.
The effect of gestational inflammation on the development of the exposed fetuses was studied. At post-term day (PT) 15, the pups from IL-1β-treated dams were sacrificed, and histological analysis of major organs known to be affected by prematurity/gestational inflammation (the lung, the intestines and the brain) was performed. For the lung, a blind count of alveoli was performed using ImageJ.

[3] = system: IL-1β, IL-6, IL-8 and PGF2α in fetal brain tissue; experiment: ELISA of pro-inflammatory mediators in brain of neonates; assay type: in vivo, mice; conditions: neonates from IL-1β-treated dams
Description: FIGS. 8A to 8D show the levels of the pro-inflammatory mediators IL-1β (FIG. 8A), IL-6 (FIG. 8B), IL-8 (FIG. 8C) and PGF2a (FIG. 8D) in fetal brain tissue of neonates from sham and IL-1β-treated dams administered with vehicle, Compound 1 or Kineret, as assessed by ELISA. One-way ANOVA compared to IL-1β+Veh. *p<0.05, **p<0.01, ***p<0.001. n=4 pups in each groups.
as §1

[4] = system: timed-pregnant CD-1 mice exposed to IL-1β; experiment: Intrauterine IL-1β-induced perinatal inflammation model: neonatal survival and fetal growth; assay type: in vivo; conditions: for neonatal survival at birth: pups from IL-1β-treated dams (1 μg i.u., G16.5), compound 1 1 mg/Kg/12 h or Kineret 4 mg/Kg/12 h s.c., relative to vehicle
Description: Timed-pregnant CD-1 mice were exposed to 1 μg of IL-1β at 16.5 days of gestation (G16.5). Compound 1 (Cmpd 1), Kineret or vehicle was injected subcutaneously in the neck skin 30 minutes before stimulation with IL-1β, and mice delivery was assessed every hour until term (G19-G19.5).
One-way ANOVA compared to IL-1β+Veh. ***p<0.001. Control (n=9), sham (n=7), IL-1β (n=26), IL-1β+Compound 1 (n=22), IL-1β+Kin (n=11).
Intrauterine […] perinatal inflammation model. Timed-pregnant CD-1 mice at 16.5 days of gestation were steadily anesthetized with an isoflurane mask. After body hair removal from the peritoneal area, a 1.5 cm-tall median incision was performed with surgical scissors in the lower abdominal wall. The lower segment of the right uterine horn was then exposed and 1 μg of IL-1β was injected between two fetal membranes with care of not entering the amniotic cavity. The abdominal muscle layer was sutured and the skin closed with clips. One hundred μL of Compound 1 (1 mg/Kg/12 h), Kineret® (4 mg/Kg/12 h) or vehicle (sterile water) was injected subcutaneously in the neck 30 minutes before stimulation with IL-1β (to allow distribution of drugs to target tissues). Mice delivery was assessed every hour until term (G19-G19.5). Immediately after delivery, neonatal survival was assessed. Some pregnant mice were sacrificed before birth (24 h after the surgery) to either 1) perform caesarean section and photograph fetuses; 2) collect amniotic fluids; and 3) collect placentas. Only tissues and fluids from gestational sacs closer to the cervical end of the uterus were collected to ensure proximity with the IL-1β injection site. Tissues and fluids were snap-frozen in liquid nitrogen and kept at −80° C. for subsequent RNA purification or protein quantification by ELISA.

[5] = system: IL-1β, IL-6, IL-8 and PGF2α in neonatal lungs; experiment: ELISA of pro-inflammatory mediators in lungs of neonates; assay type: in vivo, mice; conditions: neonates from IL-1β-treated dams; tissue collected at birth
Description: FIGS. 3A to 3D show the levels of the pro-inflammatory mediators IL-1p (FIG. 3A), IL-6 (FIG. 3B), IL-8 (FIG. 3C) and PGF2a (FIG. 3D) in the lungs of neonates from sham and IL-1β-treated dams administered with vehicle, Compound 1 or Kineret, as assessed by ELISA. One-way ANOVA compared to IL-1β+Veh. *p<0.05, **p<0.01. n=4 pups in each groups.
as §1

| Molecule | increased IL-1β and IL-8 in neonatal intestines [1] | levels of gut IL-6 [1] | damages to lung architecture caused by IL-1β [2] | alveoli count per mm^2 ([2]; pups from IL-1β-treated dams) | number of alveoli per mm^2 compared with Kineret-treated group ([2]; pups from IL-1β-treated dams) | increased IL-1β and IL-6 levels in the brain [3] | increased IL-8 levels in the brain [3] | IL-1β-induced growth arrest of fetuses ([4]; caesarean section of dams after 24 h exposition to intrauterine IL-1β) | neonatal survival at birth [4] | reducing neonatal death, inflammation and inflammation-mediated damages in neonatal organs, compared with Kineret ([4]; summary statement) | levels of all cytokines tested (IL-1β, IL-6, IL-8, PGF2α) in neonatal lungs [5] |
| --- | --- | --- | --- | --- | --- | --- | --- | --- | --- | --- | --- |
| CC(C)C[C@@H](NC(=O)[C@@H](CCC(=O)O)NC(=O)[C@H](NC(=O)[C@H](NC(=O)[C@@H](Cc1ccc(O)cc1)NC(=O)[C@H](N)CCCNC(=N)N)C(C)O)C(C)C)C(=O)N[C@H](C)C(N)=O (stereo partly drawn) [compound 1] (H-[dR][dY][dThr(3ξ)][dV][dE][dL][dA]-NH2) | alleviated this effect | clear trend toward decreased levels | prevents the damages to lung architecture | completely restored the alveoli count | significantly higher | alleviated this effect | alleviated this effect | prevents this detrimental effect | significantly increased neonatal survival | significantly more effective | significant reduction |
| Kineret: recombinant form of the human interleukin-1 receptor antagonist (IL-1Ra), purchased from Swedish Orphan Biovitrum AB |  | not observed | a more modest effect | only partially restored the alveoli count |  | ineffective at significantly reducing | although significant, was weaker than that obtained with compound 1 |  | but not Kineret®, significantly increased neonatal survival |  | only effective at significantly decreasing lung IL-1β levels |
